Data as given in DBAASP.
Values after ≈ are worked out from the molar mass of the structure shown. Blank lines part the entries; values can stand above or below the compound they belong to.

Tests used:
Experiment in all cases: ≥ marks a high value that may be exact or a test limit, other limits are often not marked, values filed in µg/mL are converted to µM
[1] = system: Staphylococcus aureus ATCC BAA-1556
[2] = system: Bacillus subtilis ATCC 23857
[3] = system: Escherichia coli ATCC 25922
[4] = system: Staphylococcus epidermidis ATCC 12228
[5] = system: Staphylococcus aureus ATCC 25923
[6] = system: Escherichia coli B
[7] = system: Staphylococcus aureus
[8] = system: Candida albicans F7-39/IDE99
[9] = system: Pseudomonas aeruginosa
[10] = system: Bacillus subtilis 168
[11] = system: Klebsiella pneumoniae ATCC 700603
[12] = system: Pseudomonas aeruginosa ATCC 9027
[13] = system: Candida albicans ATCC 2002
[14] = system: Bacillus subtilis
[15] = system: Candida albicans ATCC 10231

SMILES: CC(C)C[C@H](NC(=O)[C@H](Cc1c[nH]c2ccccc12)NC(=O)[C@H](CCCN=C(N)N)NC(=O)[C@H](CC(C)C)NC(=O)[C@H](Cc1c[nH]c2ccccc12)NC(=O)[C@H](Cc1c[nH]c2ccccc12)NC(=O)[C@H](CC(C)C)NC(=O)[C@H](Cc1c[nH]c2ccccc12)NC(=O)[C@@H](N)CC(C)C)C(N)=O [LWLWWLRWL]
MIC [1]: 3.12 µM (≈ 4.28 µg/mL)

SMILES: CC(C)C[C@H](NC(=O)[C@H](Cc1c[nH]c2ccccc12)NC(=O)[C@H](CCCN=C(N)N)NC(=O)[C@H](CC(C)C)NC(=O)[C@H](Cc1c[nH]c2ccccc12)NC(=O)[C@H](Cc1c[nH]c2ccccc12)NC(=O)[C@H](CC(C)C)NC(=O)[C@@H](N)Cc1c[nH]c2ccccc12)C(N)=O [WLWWLRWL]
MIC [1]: 6.25 µM (≈ 7.86 µg/mL)

SMILES: CC(C)C[C@H](NC(=O)[C@H](CC(C)C)NC(=O)[C@H](CCCCN)NC(=O)[C@H](CC(C)C)NC(=O)[C@H](CC(C)C)NC(=O)[C@H](CC(C)C)NC(=O)[C@H](CC(C)C)NC(=O)[C@H](CC(C)C)NC(=O)[C@@H](N)CC(C)C)C(N)=O [LLLLLLKLL]
MIC [1]: ≥ 100 µM

SMILES: CC[C@H](C)[C@H](NC(=O)[C@H](Cc1c[nH]c2ccccc12)NC(=O)[C@H](CCCN=C(N)N)NC(=O)[C@H](CCCN=C(N)N)NC(=O)[C@H](Cc1c[nH]c2ccccc12)NC(=O)[C@@H](N)CCCCN)C(=O)N[C@@H](CCCN=C(N)N)C(=O)N[C@@H](Cc1c[nH]c2ccccc12)C(N)=O [KWRRWIRW]
MIC [1]: 12.5 µM (≈ 16.1 µg/mL)

SMILES: CC(C)C[C@H](NC(=O)[C@H](CC(C)C)NC(=O)[C@H](CC(C)C)NC(=O)[C@H](CC(C)C)NC(=O)[C@H](CCCCN)NC(=O)[C@H](CC(C)C)NC(=O)[C@H](CC(C)C)NC(=O)[C@H](CC(C)C)NC(=O)[C@@H](N)CCCCN)C(N)=O [KLLLKLLLL]
MIC [1]: ≥ 100 µM

SMILES: CC(C)C[C@H](NC(=O)[C@H](Cc1c[nH]c2ccccc12)NC(=O)[C@H](CCCN=C(N)N)NC(=O)[C@H](CC(C)C)NC(=O)[C@H](Cc1c[nH]c2ccccc12)NC(=O)[C@H](Cc1c[nH]c2ccccc12)NC(=O)[C@@H](N)CC(C)C)C(N)=O [LWWLRWL]
MIC [1]: 12.5 µM (≈ 13.4 µg/mL)

SMILES: N=C(N)NCCC[C@H](NC(=O)[C@H](CCCNC(=N)N)NC(=O)[C@H](Cc1ccccc1)NC(=O)[C@H](Cc1ccccc1)NC(=O)[C@H](CCCNC(=N)N)NC(=O)[C@H](CCCNC(=N)N)NC(=O)[C@H](Cc1ccccc1)NC(=O)[C@H](Cc1ccccc1)NC(=O)[C@H](CCCNC(=N)N)NC(=O)[C@H](CCCNC(=N)N)NC(=O)[C@H](Cc1ccccc1)NC(=O)[C@H](Cc1ccccc1)NC(=O)[C@H](CCCNC(=N)N)NC(=O)[C@H](CCCNC(=N)N)NC(=O)[C@H](Cc1ccccc1)NC(=O)[C@@H](N)Cc1ccccc1)C(N)=O [FFRRFFRRFFRRFFRR]
MIC [2]: 8.18 µM (≈ 20 µg/mL)
MIC [15]: > 20.5 µM

Results, then the compound that gave them:

MIC [1]: ≥ 100 µM
SMILES: CC(C)C[C@H](NC(=O)[C@H](CCCCN)NC(=O)[C@H](CCCCN)NC(=O)[C@H](CC(C)C)NC(=O)[C@H](CC(C)C)NC(=O)[C@H](CC(C)C)NC(=O)[C@H](CC(C)C)NC(=O)[C@H](CC(C)C)NC(=O)[C@@H](N)CC(C)C)C(N)=O [LLLLLLKKL]

MIC [2]: ≥ 128 µM
MIC [3]: > 128 µM
SMILES: CC[C@H](C)[C@H](NC(=O)CN)C(=O)N[C@H](C(=O)N[C@@H](C)C(=O)NCC(=O)N[C@H](C(=O)N[C@H](C(=O)N[C@H](C(=O)N[C@@H](CCCCN)C(=O)N[C@H](C(=O)N[C@@H](C)C(=O)N[C@@H](CCCCN)C(N)=O)[C@@H](C)CC)[C@@H](C)CC)[C@@H](C)CC)[C@@H](C)CC)[C@@H](C)CC [GIIAGIIIKIAK]

MIC [4]: 4 µM (≈ 5.01 µg/mL)
MIC [2]: 4 µM (≈ 5.01 µg/mL)
MIC [5]: 8 µM (≈ 10 µg/mL)
MIC [3]: 64 µM (≈ 80.2 µg/mL)
SMILES: CC[C@H](C)[C@H](N)C(=O)N[C@@H](CC(C)C)C(=O)NCC(=O)N[C@H](C(=O)N[C@H](C(=O)N[C@@H](CC(C)C)C(=O)NCC(=O)N[C@@H](CC(C)C)C(=O)N[C@@H](CC(C)C)C(=O)N[C@@H](CCCCN)C(=O)N[C@H](C(=O)N[C@@H](CC(C)C)C(N)=O)[C@@H](C)O)[C@@H](C)CC)[C@@H](C)O [ILGTILGLLKTL]

MIC [6]: 1.4 µM (≈ 2.43 µg/mL)
MIC [7]: 9 µM (≈ 15.6 µg/mL)
MIC [8]: 10 µM (≈ 17.4 µg/mL)
MIC [9]: 14.4 µM (≈ 25 µg/mL)
MIC [10]: 0.7 µM (≈ 1.22 µg/mL)
SMILES: CC[C@H](C)[C@H](NC(=O)[C@H](CCCCN)NC(=O)[C@H](CCCCN)NC(=O)[C@H](Cc1c[nH]c2ccccc12)NC(=O)[C@H](CC(N)=O)NC(=O)[C@@H](N)C(C)C)C(=O)N[C@@H](CC(C)C)C(=O)NCC(=O)N[C@@H](CCCCN)C(=O)N[C@H](C(=O)N[C@H](C(=O)N[C@@H](CCCCN)C(=O)N[C@H](C(=O)N[C@@H](C)C(=O)N[C@@H](CCCCN)C(N)=O)C(C)C)[C@@H](C)CC)[C@@H](C)CC [VNWKKILGKIIKVAK]

MIC [11]: 64 µM (≈ 89.2 µg/mL)
MIC [2]: 16 µM (≈ 22.3 µg/mL)
MIC [5]: 64 µM (≈ 89.2 µg/mL)
MIC [12]: 32 µM (≈ 44.6 µg/mL)
MIC [3]: 16 µM (≈ 22.3 µg/mL)
SMILES: CC[C@H](C)[C@H](NC(=O)[C@H](CCCCN)NC(=O)[C@H](CCCCN)NC(=O)[C@H](C)NC(=O)[C@@H](NC(=O)[C@H](C)NC(=O)[C@H](CC(C)C)NC(=O)[C@H](CC(C)C)NC(=O)[C@H](C)NC(=O)[C@H](CCCCN)NC(=O)[C@H](CC(C)C)NC(=O)[C@H](CC(N)=O)NC(=O)[C@@H](N)CC(C)C)C(C)C)C(N)=O [LNLKALLAVAKKI]

MIC [6]: 2.7 µM (≈ 3.96 µg/mL)
MIC [7]: 5.3 µM (≈ 7.77 µg/mL)
MIC [8]: 7 µM (≈ 10.3 µg/mL)
MIC [9]: 38.3 µM (≈ 56.2 µg/mL)
MIC [10]: 1.3 µM (≈ 1.91 µg/mL)
SMILES: CC[C@H](C)[C@H](NC(=O)[C@H](Cc1cnc[nH]1)NC(=O)[C@H](CCCCN)NC(=O)[C@H](CC(C)C)NC(=O)[C@H](CC(C)C)NC(=O)[C@@H](NC(=O)[C@H](CCSC)NC(=O)[C@H](Cc1c[nH]c2ccccc12)NC(=O)[C@H](CCCCN)NC(=O)CN)[C@@H](C)O)C(=O)N[C@@H](CC(C)C)C(=O)N[C@@H](CCCCN)C(N)=O [GKWMTLLKHILK]

MIC [1]: ≥ 100 µM
SMILES: CC(C)C[C@H](NC(=O)[C@H](CC(C)C)NC(=O)[C@H](Cc1c[nH]c2ccccc12)NC(=O)[C@H](CCCCN)NC(=O)[C@H](CC(C)C)NC(=O)[C@H](CC(C)C)NC(=O)[C@H](CCCCN)NC(=O)[C@@H](N)CCCCN)C(=O)N[C@@H](CCCCN)C(N)=O [KKLLKWLLK]

MIC [13]: 0.947 µM (≈ 2.34 µg/mL)
MIC [5]: 5.68 µM (≈ 14.1 µg/mL)
MIC [14]: 15.2 µM (≈ 37.5 µg/mL)
MIC [3]: 15.2 µM (≈ 37.5 µg/mL)
SMILES: CC[C@H](C)[C@H](NC(=O)[C@H](C)NC(=O)[C@H](CCCN=C(N)N)NC(=O)[C@H](Cc1ccc(O)cc1)NC(=O)[C@H](CC(C)C)NC(=O)[C@H](CC(N)=O)NC(=O)[C@H](Cc1ccc(O)cc1)NC(=O)CNC(=O)[C@H](C)NC(=O)[C@@H](NC(=O)[C@@H](NC(=O)[C@@H](NC(=O)[C@H](CCCN=C(N)N)NC(=O)[C@@H](NC(=O)[C@@H](NC(=O)[C@@H](NC(=O)[C@@H]1CCCN1C(=O)[C@@H](N)Cc1c[nH]c2ccccc12)C(C)C)C(C)C)[C@@H](C)CC)[C@@H](C)O)C(C)C)C(C)C)C(=O)N[C@@H](CCCCN)C(=O)N[C@@H](CCCCN)C(=O)N[C@@H](CCCCN)C(=O)O [WPVVIRTVVAGYNLYRAIKKK]

MIC [4]: 4 µM (≈ 5.07 µg/mL)
MIC [2]: 4 µM (≈ 5.07 µg/mL)
MIC [5]: 8 µM (≈ 10.1 µg/mL)
MIC [3]: 32 µM (≈ 40.5 µg/mL)
SMILES: CC[C@H](C)[C@H](N)C(=O)N[C@@H](CC(C)C)C(=O)NCC(=O)N[C@H](C(=O)N[C@H](C(=O)N[C@@H](CC(C)C)C(=O)NCC(=O)N[C@@H](CC(C)C)C(=O)N[C@@H](CC(C)C)C(=O)N[C@@H](CCCCN)C(=O)N[C@@H](CC(N)=O)C(=O)N[C@@H](CC(C)C)C(N)=O)[C@@H](C)CC)[C@@H](C)O [ILGTILGLLKNL]

MIC [13]: 0.202 µM (≈ 0.586 µg/mL)
MIC [5]: 1.21 µM (≈ 3.52 µg/mL)
MIC [14]: 1.21 µM (≈ 3.52 µg/mL)
MIC [3]: 6.45 µM (≈ 18.8 µg/mL)
SMILES: CC[C@H](C)[C@H](NC(=O)[C@H](C)NC(=O)[C@H](CCCN=C(N)N)NC(=O)[C@H](Cc1ccc(O)cc1)NC(=O)[C@H](CC(C)C)NC(=O)[C@H](CC(N)=O)NC(=O)[C@H](Cc1ccc(O)cc1)NC(=O)CNC(=O)[C@H](C)NC(=O)[C@@H](NC(=O)[C@@H](NC(=O)[C@@H](NC(=O)[C@H](CCCN=C(N)N)NC(=O)[C@@H](NC(=O)[C@@H](NC(=O)[C@@H](NC(=O)[C@@H]1CCCN1C(=O)[C@H](Cc1c[nH]c2ccccc12)NC(=O)[C@H](Cc1ccccc1)NC(=O)[C@H](CCCN=C(N)N)NC(=O)[C@@H](N)CCCCN)C(C)C)C(C)C)[C@@H](C)CC)[C@@H](C)O)C(C)C)C(C)C)C(=O)N[C@@H](CCCCN)C(=O)N[C@@H](CCCCN)C(=O)N[C@@H](CCCCN)C(=O)O [KRFWPVVIRTVVAGYNLYRAIKKK]
